Measured values taken from patent publication US6543181B1, “Fruit fly attractant compositions” (Iowa State University Research Foundation, Inc., priority 2001, dated 2003).

How the values were obtained:
[1] = tested on: Drosophila melanogaster antennae; set-up: key to the marks not given beside the values
[2] = tested on: Drosophila melanogaster adult fruit flies; experiment: Attraction-trapant behavioral bioassay (cup traps in screen cages); assay type: in vivo; conditions: for Catches per day (mean ± S.E.): 100-150 flies released
Procedure: Three different sizes of screen cages (w×h×l: 26 cm×26 cm×30 cm; 48×61×61; and 88×36×46) were used for the trapping experiments. Trapping experiments were carried out either in the laboratories, or in nearby green houses.
The attraction-trapant assay traps were constructed from cylindrical, clear plastic jelly cups (4.0 cm I.D. at top, 3.0 cm I.D. bottom; 2.5 cm high) with a tightly fitting paper lid. The lids were pre-drilled with a hole having a diameter of about 2 mm, which was the only aperture through which volatiles from candidate attractants could emanate, and also the only entrance through which attracted flies could enter the trap chamber. In all experiments, a 1-cm-long, 0.5-cm-diameter piece of cotton dental wick was used as the substrate onto which different compositions of potential attractants were loaded for testing, and then the wick was placed in the bottom of the cup and the lid then sealed in position at the beginning of testing.
Traps containing a series of compositions to be compared were tested in a randomized, complete-block design, with one replicate of a treatment series deployed per cage. The traps were placed in an array with usually approximately 15 cm between traps. If three treatments were to be compared (including control), the array took the form of a triangle. If there were four treatments, then the four trap-cups formed a square.
No glue or toxicant was used inside the traps, and captures depended on the ability of the attractant-trapant composition to both attract the fruit flies as well as retain them in the chamber by keeping them from wandering back to the entrance hole on the lid and exiting through it. During these assays, observations of the fruit flies' behavior were often made, and they could routinely be observed flying slowly around the cage before descending to one of the traps on the floor of the cage, landing on it, and then walking more or less directly to the hole on the lid and entering the trap.
[…] […] During this period the trap positions were rotated at several hour intervals in order to minimize any possible trap position effects.

[3] = Table 3, 10 mg in cup trap, traps checked daily for 5 days
[4] = Table 4, ratios of acetic acid and 2-phenylethanol, total lure 10 mg, no water added, checked daily for 5 days

SMILES | Catches per day (mean ± S.E.) [2, 3] | further results
C=CCc1ccc(OC)c(OC)c1 [1,2-dimethoxy-4-(2-propenyl)-benzene] | – | EAG activity [1]: +++
OCCc1ccccc1 [2-phenylethanol] | 3.15 ± 1.63 | Catches per day (mean ± S.E.) ([2]; Table 3, 1 mg in cup trap, traps checked daily for 5 days): 0.5 ± 0.29; Catches per day (mean ± S.E.) ([2]; Table 3, 5 mg in cup trap, traps checked daily for 5 days): 1.25 ± 0.63; Catches per day (mean ± S.E.) [2, 4]: 0 ± 0
CC(=O)OCCc1ccccc1 [2-phenylethyl acetate] | 1.87 ± 0.81 | –
CC(=O)O [Acetic acid] | – | Catches per day (mean ± S.E.) [2, 4]: 3.0 ± 1.08; Trap catches ([2]; Table 13, effect of ethyl acetate, 8 replicates): 0.25 ± 0.16
CCOC(=O)C=Cc1ccccc1 [Ethyl cinnamate] | 0.75 ± 0.49 | –
CCCCOC(C)=O [butyl acetate] | – | EAG activity [1]: +++
CCOC(=O)c1ccccc1 [ethyl benzoate] | 0.25 ± 0.16 | –
CCOC(=O)c1ccccc1O [ethyl salicylate] | 0.37 ± 0.18 | –
CCOC(=O)Cc1ccccc1 [ethylphenyl acetate] | 1.5 ± 0.5 | –
CC(=O)OCc1ccccc1 [phenylmethyl acetate] | 0.5 ± 0.27 | –
